# Data reported in patent US10588929B1, “Method of synthesizing watermelon seed particles” (KING SAUD UNIVERSITY, priority 2019, dated 2020).
# Experiments:
# Test in all cases: Zone of inhibition, diffusion agar technique
# Format in all cases: cell-based
# Details in all cases: beyond well diameter of 6 mm, 100 μg of nanoparticles
# [1] = tested on: Aspergillus fumigatus (RCMB 02567)
# Experimental: (§1) Watermelon seed nanoparticles synthesized according to Example 1 were tested for antimicrobial activity against gram negative bacteria, gram positive bacteria, and fungi. Zone of inhibition studies were performed, the results of which are summarized in Table 2 (displaying mean zone of inhibition in mm ± standard deviation beyond well diameter of 6 mm). Testing used the diffusion agar technique with 6.0 mm well diameter and administration of 100 μg of the watermelon seed nanoparticles.
# [2] = tested on: Streptococcus pneumoniae (RCMB 010011)
# Experimental: as §1
# [3] = tested on: Bacillus subtilis (RCMB 010068)
# Experimental: as §1
# [4] = tested on: Escherichia coli (RCMB 010054)
# Experimental: as §1
compound,measurement,setting,value
C[C@@H]1[C@H](O)[C@@H](C)/C=C/C=C/C=C/C=C/C=C/C=C/C=C/[C@H](O[C@@H]2O[C@H](C)[C@@H](O)[C@H](N)[C@@H]2O)C[C@@H]2O[C@](O)(C[C@@H](O)C[C@@H](O)[C@H](O)CC[C@@H](O)C[C@@H](O)CC(=O)O[C@H]1C)C[C@H](O)[C@H]2C(=O)O [Amphotericin B],mean zone of inhibition,[1],21.7 ± 1.5 mm
CC1(C)S[C@@H]2[C@H](NC(=O)[C@H](N)c3ccccc3)C(=O)N2[C@H]1C(=O)O [Ampicillin],mean zone of inhibition,[2],21.0 ± 1.0 mm
same,mean zone of inhibition,[3],31.3 ± 1.5 mm
Gentamicin,mean zone of inhibition,[4],20.3 ± 0.58 mm
